Test results: patent US12157746B2, “Tetrahydro-1H-pyrazino[2,1-a]isoindolylquinoline compounds for the treatment of autoimmune disease” (F. HOFFMANN-LA ROCHE AG, priority 2018, dated 2024)

Columns and labels:
human TLR7 = target: T1, human TLR7 (Homo sapiens, UniProt Q9NYK1); assay: HEK293-Blue-hTLR-7 cells assay; assay type: cell-based; conditions: HEK293-Blue-hTLR7 cells, R848 stimulation, 20 hrs, SEAP reporter; read-out: HEK/hTLR7 IC50
T1 sequence (Q9NYK1 27-1049): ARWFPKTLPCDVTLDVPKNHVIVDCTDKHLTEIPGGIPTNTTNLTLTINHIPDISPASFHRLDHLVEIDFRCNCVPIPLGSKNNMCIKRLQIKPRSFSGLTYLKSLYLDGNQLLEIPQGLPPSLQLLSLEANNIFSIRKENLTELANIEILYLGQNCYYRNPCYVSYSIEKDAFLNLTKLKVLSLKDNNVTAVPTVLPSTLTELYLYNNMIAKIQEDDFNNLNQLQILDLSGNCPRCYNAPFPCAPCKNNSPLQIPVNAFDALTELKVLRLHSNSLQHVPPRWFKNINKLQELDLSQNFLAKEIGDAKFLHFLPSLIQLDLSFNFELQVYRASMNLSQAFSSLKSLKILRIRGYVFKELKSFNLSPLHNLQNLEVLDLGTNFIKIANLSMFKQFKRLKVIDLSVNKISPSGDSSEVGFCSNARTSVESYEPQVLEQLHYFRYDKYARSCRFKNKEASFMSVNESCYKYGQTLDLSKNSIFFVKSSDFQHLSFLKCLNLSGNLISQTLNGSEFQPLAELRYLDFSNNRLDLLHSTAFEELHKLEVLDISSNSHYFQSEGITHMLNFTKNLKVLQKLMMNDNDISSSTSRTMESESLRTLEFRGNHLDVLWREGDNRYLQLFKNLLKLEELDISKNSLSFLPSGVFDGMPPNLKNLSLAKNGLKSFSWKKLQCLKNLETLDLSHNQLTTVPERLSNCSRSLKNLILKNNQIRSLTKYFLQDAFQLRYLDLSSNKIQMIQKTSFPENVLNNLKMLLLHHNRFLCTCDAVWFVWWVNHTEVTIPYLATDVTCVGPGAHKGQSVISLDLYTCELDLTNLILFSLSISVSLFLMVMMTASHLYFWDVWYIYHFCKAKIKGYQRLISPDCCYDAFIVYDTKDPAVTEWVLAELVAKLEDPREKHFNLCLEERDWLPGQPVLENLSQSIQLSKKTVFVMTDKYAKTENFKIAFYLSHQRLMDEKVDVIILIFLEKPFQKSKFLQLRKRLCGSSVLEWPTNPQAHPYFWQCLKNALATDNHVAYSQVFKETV
Summary of the method: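 HEK293-Blue-hTLR7 cells (NF-κB/AP-1-driven SEAP reporter) incubated with serially diluted compound (1% DMSO final) and R848 agonist for 20 h at 37 °C. Supernatant SEAP measured with QUANTI-Blue (2 h, 37 °C) by absorbance at 620-655 nm; antagonism seen as reduced reporter.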

[1] = Human microsomal stability assay; assay type: in vitro ADME; conditions: human liver microsomes 0.5 mg/mL, 37° C., pH 7.4, NADPH regenerating system, 0-30 minutes
Description: Human Microsomal Stability Assay
Human liver microsomes (Cat. NO.: 452117, Corning, USA) were preincubated with test compound for 10 minutes at 37° C. in 100 mM potassium phosphate buffer, pH 7.4. The reactions were initiated by adding NADPH regenerating system. The final incubation mixtures contained […] test compound, 0.5 mg/mL liver microsomal protein, 1 mM MgCl2, 1 mM NADP, 1 unit/mL isocitric dehydrogenase and 6 mM isocitric acid in 100 mM potassium phosphate buffer, pH 7.4. After incubation times of 0, 3, 6, 9, 15 and 30 minutes at 37° C., 300 μL of cold ACN (including internal standard) was added to 100 μL incubation mixture to terminate the reaction. Following precipitation and centrifugation, 100 μL supernatant will be taken out and added 300 uL water. The amount of compound remaining in the samples was determined by LC-MS/MS. Controls of no NADPH regenerating system at zero and 30 minutes were also prepared and analyzed. The results were categorized as: low (<7.0 mLJmin/kg), medium (7.0-16.2 mL/min/kg) and high (16.2-23.2 mLJmin/kg).

| SMILES | IC50 (human TLR7) [nM] | CL (h) [1] [mL/min/kg] |
| --- | --- | --- |
| C[C@@H]1CN(c2ccc(C#N)c3ncccc23)C[C@@H]2c3ccc(N4C[C@@H](N)[C@](C)(O)C4)cc3CN12 [Example 45A, 5-[(4R,10bS)-8-[(3R,4R)-4-amino-3-hydroxy-3-methyl-pyrrolidin-1-yl]-4-methyl-3,4,6,10b-tetrahydro-1H-pyrazino[2,1-a]isoindol-2-yl]quinoline-8-carbonitrile] | 3.5 | 6.2 |
| C[C@@H]1CN(c2ccc(C#N)c3ncccc23)C[C@@H]2c3ccc(N4CCOC[C@@H](N)C4)cc3CN12 [Example 54B, 5-[(4R,10bS)-8-[(6S)-6-amino-1,4-oxazepan-4-yl]-4-methyl-3,4,6,10b-tetrahydro-1H-pyrazino[2,1-a]isoindol-2-yl]quinoline-8-carbonitrile] | 5.7 | 7.0 |
| C[C@@H]1CN(c2ccc(C#N)c3ncccc23)C[C@@H]2c3ccc(N4CC[C@@H](N)C4)cc3CN12 [Example 20, 5-[(4R,10bS)-8-[(3R)-3-aminopyrrolidin-1-yl]-4-methyl-3,4,6,10b-tetrahydro-1H-pyrazino[2,1-a]isoindol-2-yl]quinoline-8-carbonitrile] | 3.4 | 6.5 |
| [2H]c1ccc2c(N3C[C@@H](C)N4Cc5cc(N6CC7CNCC(C6)O7)ccc5[C@H]4C3)ccc(C#N)c2n1 [Example 93, 5-[(4R,10bS)-4-methyl-8-(9-oxa-3,7-diazabicyclo[3.3.1]nonan-3-yl)-3,4,6,10b-tetrahydro-1H-pyrazino[2,1-a]isoindol-2-yl]-2-deuterio-quinoline-8-carbonitrile] | 3.8 | 8.4 |
| C[C@@H]1CN(c2ccc(C#N)c3nccnc23)C[C@@H]2c3ccc(N4CCNCC4)cc3CN12 [Example 7, 8-[(4R,10bS)-4-methyl-8-piperazin-1-yl-3,4,6,10b-tetrahydro-1H-pyrazino[2,1-a]isoindol-2-yl]quinoxaline-5-carbonitrile] | < 3.2 | 7.8 |
| C[C@@H]1CN(c2ccc(C#N)c3ncccc23)C[C@@H]2c3ccc(N4CC(C)(N)C4)cc3CN12 [Example 39, 5-[(4R,10bS)-8-(3-amino-3-methyl-azetidin-1-yl)-4-methyl-3,4,6,10b-tetrahydro-1H-pyrazino[2,1-a]isoindol-2-yl]quinoline-8-carbonitrile] | 3 | 6.2 |
| C[C@@H]1CN(c2ccc(C#N)n3ncc(F)c23)C[C@@H]2c3ccc(N4C[C@H](N)[C@@](C)(O)C4)cc3CN12 [Example 112, 4-[(4R,10bS)-8-[(3S,4S)-4-amino-3-hydroxy-3-methyl-pyrrolidin-1-yl]-4-methyl-3,4,6,10b-tetrahydro-1H-pyrazino[2,1-a]isoindol-2-yl]-3-fluoro-pyrazolo[1,5-a]pyridine-7-carbonitrile] | 11.4 | 8.6 |
| C[C@@H]1CN(c2ccc(C#N)c3ncccc23)C[C@@H]2c3ccc(N4CCNC[C@H]4CO)cc3CN12 [Example 11, 5-[(4R,10S)-8-[(2S)-2-(hydroxymethyl)piperazin-1-yl]-4-methyl-3,4,6,10b-tetrahydro-1H-pyrazino[2,1-a]isoindol-2-yl]quinoline-8-carbonitrile] | 3.4 | 6.2 |
| C[C@@H]1CN(c2ccc(C#N)c3ncccc23)C[C@@H]2c3ccc(N[C@@H]4CNC[C@@H]4F)cc3CN12 [Example 32, 5-[(4R,10bS)-8-[[(3R,4S)-4-fluoropyrrolidin-3-yl]amino]-4-methyl-3,4,6,10b-tetrahydro-1H-pyrazino[2,1-a]isoindol-2-yl]quinoline-8-carbonitrile] | 3.5 | 8.7 |
| CO[C@@H]1CN(c2ccc3c(c2)CN2[C@H](C)CN(c4ccc(C#N)n5nccc45)C[C@H]32)CC[C@H]1N [Example 104, 4-[(4R,10bS)-8-[(3R,4R)-4-amino-3-methoxy-1-piperidyl]-4-methyl-3,4,6,10b-tetrahydro-1H-pyrazino[2,1-a]isoindol-2-yl]pyrazolo[1,5-a]pyridine-7-carbonitrile] | 6.1 | 7.0 |
| C[C@@H]1CN(c2ccc(C#N)c3ncccc23)C[C@@H]2c3ccc(N4C[C@H](N)[C@@H](O)C4)cc3CN12 [Example 40A, 5-[(4R,10bS)-8-[(3S,4S)-3-amino-4-hydroxy-pyrrolidin-1-yl]-4-methyl-3,4,6,10b-tetrahydro-1H-pyrazino[2,1-a]isoindol-2-yl]quinoline-8-carbonitrile] | 3.7 | 7.0 |

Now from value to compound:

| IC50 (human TLR7) [nM] | CL (h) [1] [mL/min/kg] | SMILES |
| --- | --- | --- |
| < 3.2 | 8.8 | C[C@@H]1CN(c2ccc(C#N)c3ncccc23)C[C@@H]2c3ccc(N[C@H]4CNC[C@H]4F)cc3CN12 [Example 30, 5-[(4R,10bS)-8-[[(3S,4R)-4-fluoropyrrolidin-3-yl]amino]-4-methyl-3,4,6,10b-tetrahydro-1H-pyrazino[2,1-a]isoindol-2-yl]quinoline-8-carbonitrile] |
| 1.7 | 6.2 | C[C@@H]1CN(c2ccc(C#N)c3ncccc23)C[C@@H]2c3ccc(N4CC5(CN(C)C5)C4)cc3CN12 [Example 38, 5-[(4R,10bS)-4-methyl-8-(6-methyl-2,6-diazaspiro[3.3]heptan-2-yl)-3,4,6,10b-tetrahydro-1H-pyrazino[2,1-a]isoindol-2-yl]quinoline-8-carbonitrile] |
| 3.9 | 8.6 | C[C@@H]1CN(c2ccc(C#N)c3ncccc23)C[C@@H]2c3ccc(N4CCNC[C@H](O)C4)cc3CN12 [Example 53A, 5-[(4R,10bS)-8-[(6S)-6-hydroxy-1,4-diazepan-1-yl]-4-methyl-3,4,6,10b-tetrahydro-1H-pyrazino[2,1-a]isoindol-2-yl]quinoline-8-carbonitrile] |
| 5.3 | 8.5 | CO[C@H]1CN(c2ccc3c(c2)CN2C3CN(c3ccc(C#N)c4ncccc34)C[C@H]2C)C[C@@H]1N (single isomer, unassigned) [Example 16A] |
| 4.3 | 7.6 | C[C@@H]1CN(c2ccc(C#N)c3ncccc23)C[C@@H]2c3ccc(N4C[C@@H](N)[C@H](O)C4)cc3CN12 (single isomer, unassigned) [Example 40B] |
| < 3.2 | 6.2 | CO[C@@H]1CN(c2ccc3c(c2)CN2C3CN(c3ccc(C#N)c4ncccc34)C[C@H]2C)C[C@@H]1N (relative stereo) [Example 17, 5-[(4R,10bS)-8-[cis-3-amino-4-methoxy-pyrrolidin-1-yl]-4-methyl-3,4,6,10b-tetrahydro-1H-pyrazino[2,1-a]isoindol-2-yl]quinoline-8-carbonitrile] |
| 3.6 | 7.7 | C[C@@H]1CN(c2ccc(C#N)c3ncccc23)C[C@@H]2c3ccc(N4CCC(N)(CO)C4)cc3CN12 (stereo partly drawn) [Example 19, 5-[(4R,10bS)-8-[3-amino-3-(hydroxymethyl)pyrrolidin-1-yl]-4-methyl-3,4,6,10b-tetrahydro-1H-pyrazino[2,1-a]isoindol-2-yl]quinoline-8-carbonitrile] |
| 4.5 | 6.2 | C[C@@H]1CN(c2ccc(C#N)c3ncccc23)C[C@@H]2c3ccc(N4CC5CNCC(C4)O5)cc3CN12 [Example 14, 5-[(4R,10bS)-4-methyl-8-(9-oxa-3,7-diazabicyclo[3.3.1]nonan-3-yl)-3,4,6,10b-tetrahydro-1H-pyrazino[2,1-a]isoindol-2-yl]quinoline-8-carbonitrile] |
